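GI50: concentration for 50% inhibition of growth. Definition used: TGI = concentration required for complete inhibition of growth.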
Key:
Experiment in all cases: DTP human tumour cell line panel, 384-well format
[1] = test system: SF-268 CNS
[2] = test system: HCT-116 colon
[3] = test system: HCT-15 colon
[4] = test system: PC-3 prostate
[5] = test system: NCI-H522 lung
[6] = test system: OVCAR-8 ovarian
[7] = test system: RPMI-8226 leukemia
[8] = test system: UACC-257 melanoma
[9] = test system: T-47D breast
[10] = test system: NCI/ADR-RES ovarian
[11] = test system: SN12C renal
[12] = test system: OVCAR-5 ovarian
[13] = test system: COLO 205 colon
[14] = test system: HOP-62 NSCLC
[15] = test system: MALME-3M melanoma
[16] = test system: MDA-MB-468 breast
[17] = test system: DU-145 prostate
[18] = test system: SW-620 colon
[19] = test system: 786-0 renal
[20] = test system: A498 renal
[21] = test system: U251 glioblastoma
[22] = test system: CCRF-CEM leukemia
[23] = test system: MDA-MB-435 melanoma
[24] = test system: HT29 colon
[25] = test system: TK-10 renal
[26] = test system: SK-OV-3 ovarian
[27] = test system: UACC-62 melanoma
[28] = test system: IGROV1 ovarian
[29] = test system: SNB-19 CNS
[30] = test system: NCI-H23 lung
[31] = test system: NCI-H322M lung
[32] = test system: SR leukemia
[33] = test system: NCI-H226 lung
[34] = test system: K-562 leukemia
[35] = test system: SK-MEL-28 melanoma
[36] = test system: SF-539 CNS
[37] = test system: MOLT-4 leukemia
[38] = test system: ACHN renal
[39] = test system: OVCAR-4 ovarian
[40] = test system: BT-549 breast
[41] = test system: MDA-MB-231 breast
[42] = test system: SK-MEL-2 melanoma
[43] = test system: A549 NSCLC
[44] = test system: SF-295 CNS
[45] = test system: M14 melanoma
[46] = test system: RXF 393 renal
[47] = test system: KM12 colon
[48] = test system: LOX IMVI melanoma
[49] = test system: OVCAR-3 ovarian
[50] = test system: CAKI-1 renal
[51] = test system: SK-MEL-5 melanoma
[52] = test system: NCI-H460 NSCLC
[53] = test system: HCC-2998 colon
[54] = test system: UO-31 renal
[55] = test system: MCF7 breast
[56] = test system: HOP-92 NSCLC
[57] = test system: HL-60(TB) leukemia

For `COc1ccc(-c2c(-c3ccc(C#N)c(F)c3)nc(N3CCC(N)CC3)n(C)c2=O)cc1F`, the GI50 [1] was 14.1 µM, the TGI [1] was 27.1 µM and the GI50 [2] was 6.86 µM. The TGI [2] was 19.8 µM, the GI50 [3] was 15.7 µM and the TGI [3] was 29.3 µM. It also gave a GI50 [4] of 13.8 µM, a TGI [4] of 26.8 µM and a GI50 [5] of 11.7 µM. For the same compound, the TGI [5] was 24 µM, the GI50 [6] was 14.5 µM and the TGI [6] was 27.6 µM. The GI50 [7] was 7.53 µM, the TGI [7] was 19.6 µM and the GI50 [8] was 1.71 µM. It also gave a TGI [8] of 3.16 µM, a GI50 [9] of 10.4 µM and a TGI [9] of 22.1 µM. The GI50 [10] was 16.5 µM, the TGI [10] was 30.3 µM and the GI50 [11] was 12.9 µM. It also gave a TGI [11] of 25.6 µM, a GI50 [12] of 14.7 µM and a TGI [12] of 28.2 µM. The GI50 [13] was 12 µM, the TGI [13] was 24.3 µM and the GI50 [14] was 15.3 µM. The TGI [14] was 28.7 µM, the GI50 [15] was 2.46 µM and the TGI [15] was 6.58 µM. The GI50 [16] was 9.92 µM, the TGI [16] was 21.5 µM and the GI50 [17] was 15.1 µM. It also gave a TGI [17] of 28.9 µM, a GI50 [18] of 15.3 µM and a TGI [18] of 28.7 µM. The GI50 [19] was 10.6 µM, the TGI [19] was 22.5 µM and the GI50 [20] was 2.29 µM. For the same compound, the TGI [20] was 7.42 µM, the GI50 [21] was 12.2 µM and the TGI [21] was 24.7 µM. For the same compound, the GI50 [22] was 13 µM, the TGI [22] was 25.8 µM and the GI50 [23] was 13.5 µM. For the same compound, the TGI [23] was 26.4 µM, the GI50 [24] was 9.51 µM and the TGI [24] was 21.6 µM. It also gave a GI50 [25] of 14.3 µM, a TGI [25] of 27.5 µM and a GI50 [26] of 12 µM. For the same compound, the TGI [26] was 24.4 µM, the GI50 [27] was 2.18 µM and the TGI [27] was 5.43 µM. For the same compound, the GI50 [28] was 13.9 µM, the TGI [28] was 26.9 µM and the GI50 [29] was 18 µM. It also gave a TGI [29] of 32.1 µM, a GI50 [30] of 11.2 µM and a TGI [30] of 28.6 µM. For the same compound, the GI50 [31] was 14.3 µM, the TGI [31] was 28.3 µM and the GI50 [32] was 1.69 µM. The TGI [32] was 3.06 µM, the GI50 [33] was 1.75 µM and the TGI [33] was 3.27 µM. For the same compound, the GI50 [34] was 11.8 µM, the TGI [34] was 24.1 µM and the GI50 [35] was 10.7 µM. The TGI [35] was 22.6 µM, the GI50 [36] was 13.8 µM and the TGI [36] was 26.8 µM. It also gave a GI50 [37] of 1.78 µM, a TGI [37] of 3.17 µM and a GI50 [38] of 12.4 µM. For the same compound, the TGI [38] was 24.9 µM, the GI50 [39] was 14.3 µM and the TGI [39] was 27.6 µM. It also gave a GI50 [40] of 11.6 µM, a TGI [40] of 23.9 µM and a GI50 [41] of 13.2 µM. For the same compound, the TGI [41] was 25.9 µM, the GI50 [42] was 5.12 µM and the TGI [42] was 17.8 µM. The GI50 [43] was 16.7 µM, the TGI [43] was 30.5 µM and the GI50 [44] was 16.8 µM. It also gave a TGI [44] of 30.4 µM, a GI50 [45] of 4.89 µM and a TGI [45] of 16.6 µM. For the same compound, the GI50 [46] was 2.69 µM, the TGI [46] was 9.41 µM and the GI50 [47] was 13.1 µM. It also gave a TGI [47] of 25.9 µM, a GI50 [48] of 19.2 µM and a TGI [48] of 33.3 µM. The GI50 [49] was 13.2 µM, the TGI [49] was 26 µM and the GI50 [50] was 8.69 µM. The TGI [50] was 20.8 µM, the GI50 [51] was 14.4 µM and the TGI [51] was 27.5 µM. The GI50 [52] was 3.41 µM, the TGI [52] was 10.9 µM and the GI50 [53] was 11 µM. For the same compound, the TGI [53] was 23 µM, the GI50 [54] was 13.3 µM and the TGI [54] was 26.1 µM. The GI50 [55] was 3.06 µM, the TGI [55] was 9 µM and the GI50 [56] was 6.55 µM. For the same compound, the TGI [56] was 19.1 µM, the GI50 [57] was 3.89 µM and the TGI [57] was 15.1 µM.

Reference: PubChem BioAssay (NCI)
